According to PubChem BioAssay (NCI):
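Cultured in 96-well plates, cells were exposed to test compound for 48 hours across five concentrations. Abbreviation: GI50, concentration required for 50% inhibition of growth. TGI marks complete inhibition of growth.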

Columns and labels:
Assay in all cases: inhibition of tumour cell growth, NCI panel, 48 h
786-0 renal = test system: 786-0 renal
A498 renal = test system: A498 renal
A549 NSCLC = test system: A549 NSCLC
ACHN renal = test system: ACHN renal
BT-549 breast = test system: BT-549 breast
CAKI-1 renal = test system: CAKI-1 renal
CCRF-CEM leukemia = test system: CCRF-CEM leukemia
COLO 205 colon = test system: COLO 205 colon
DU-145 prostate = test system: DU-145 prostate
EKVX NSCLC = test system: EKVX NSCLC
HCC-2998 colon = test system: HCC-2998 colon
HCT-116 colon = test system: HCT-116 colon
HCT-15 colon = test system: HCT-15 colon
HL-60(TB) leukemia = test system: HL-60(TB) leukemia
HOP-62 NSCLC = test system: HOP-62 NSCLC
HOP-92 NSCLC = test system: HOP-92 NSCLC
HS 578T breast = test system: HS 578T breast
HT29 colon = test system: HT29 colon
IGROV1 ovarian = test system: IGROV1 ovarian
K-562 leukemia = test system: K-562 leukemia
KM12 colon = test system: KM12 colon
LOX IMVI melanoma = test system: LOX IMVI melanoma
M14 melanoma = test system: M14 melanoma
MALME-3M melanoma = test system: MALME-3M melanoma
MCF7 breast = test system: MCF7 breast
MDA-MB-231 breast = test system: MDA-MB-231 breast
MDA-MB-435 = test system: MDA-MB-435
MOLT-4 leukemia = test system: MOLT-4 leukemia
NCI-H226 lung = test system: NCI-H226 lung
NCI-H23 lung = test system: NCI-H23 lung
NCI-H460 lung = test system: NCI-H460 lung
NCI-H522 lung = test system: NCI-H522 lung
NCI/ADR-RES ovarian = test system: NCI/ADR-RES ovarian
OVCAR-3 ovarian = test system: OVCAR-3 ovarian
OVCAR-4 ovarian = test system: OVCAR-4 ovarian
OVCAR-5 ovarian = test system: OVCAR-5 ovarian
OVCAR-8 ovarian = test system: OVCAR-8 ovarian
PC-3 prostate = test system: PC-3 prostate
RPMI-8226 leukemia = test system: RPMI-8226 leukemia
RXF 393 renal = test system: RXF 393 renal
SF-268 CNS = test system: SF-268 CNS
SF-295 CNS = test system: SF-295 CNS
SF-539 CNS = test system: SF-539 CNS
SK-MEL-2 melanoma = test system: SK-MEL-2 melanoma
SK-MEL-28 melanoma = test system: SK-MEL-28 melanoma
SK-MEL-5 melanoma = test system: SK-MEL-5 melanoma
SK-OV-3 ovarian = test system: SK-OV-3 ovarian
SN12C renal = test system: SN12C renal
SNB-19 CNS = test system: SNB-19 CNS
SNB-75 CNS = test system: SNB-75 CNS
SR leukemia = test system: SR leukemia
SW-620 colon = test system: SW-620 colon
T-47D breast = test system: T-47D breast
TK-10 renal = test system: TK-10 renal
U251 CNS = test system: U251 CNS
UACC-257 melanoma = test system: UACC-257 melanoma
UACC-62 melanoma = test system: UACC-62 melanoma
UO-31 renal = test system: UO-31 renal

## O=P1(S)OC[C@H]2O[C@@H]3[C@H](F)[C@@H]2OP(O)(=S)OC[C@H]2O[C@H]([C@H](F)[C@@H]2O1)n1cnc2c(ncnc21)NC/C=C/CNc1ncnc2c1ncn23 (stereo partly drawn)
786-0 renal
  GI50: > 100 µM
  TGI: > 100 µM
A498 renal
  GI50: 0.543 µM
  TGI: 11.5 µM
A549 NSCLC
  GI50: > 100 µM
  TGI: > 100 µM
ACHN renal
  GI50: > 100 µM
  TGI: > 100 µM
BT-549 breast
  TGI: > 100 µM
CAKI-1 renal
  GI50: > 100 µM
  TGI: > 100 µM
CCRF-CEM leukemia
  GI50: > 100 µM
  TGI: > 100 µM
COLO 205 colon
  GI50: > 100 µM
  TGI: > 100 µM
DU-145 prostate
  GI50: > 100 µM
  TGI: > 100 µM
EKVX NSCLC
  GI50: > 100 µM
  TGI: > 100 µM
HCC-2998 colon
  GI50: > 100 µM
  TGI: > 100 µM
HCT-116 colon
  GI50: > 100 µM
  TGI: > 100 µM
HCT-15 colon
  GI50: > 100 µM
  TGI: > 100 µM
HL-60(TB) leukemia
  GI50: 0.365 µM
HOP-62 NSCLC
  GI50: > 100 µM
  TGI: > 100 µM
HOP-92 NSCLC
  TGI: > 100 µM
HS 578T breast
  GI50: > 100 µM
  TGI: > 100 µM
HT29 colon
  GI50: 43.7 µM
  TGI: > 100 µM
IGROV1 ovarian
  GI50: > 100 µM
  TGI: > 100 µM
K-562 leukemia
  GI50: > 100 µM
  TGI: > 100 µM
KM12 colon
  GI50: > 100 µM
  TGI: > 100 µM
LOX IMVI melanoma
  GI50: > 100 µM
  TGI: > 100 µM
M14 melanoma
  GI50: > 100 µM
  TGI: > 100 µM
MALME-3M melanoma
  GI50: > 100 µM
  TGI: > 100 µM
MCF7 breast
  GI50: > 100 µM
  TGI: > 100 µM
MDA-MB-231 breast
  GI50: > 100 µM
  TGI: > 100 µM
MDA-MB-435
  GI50: > 100 µM
  TGI: > 100 µM
MOLT-4 leukemia
  GI50: > 100 µM
  TGI: > 100 µM
NCI-H226 lung
  GI50: 0.652 µM
  TGI: > 100 µM
NCI-H23 lung
  GI50: > 100 µM
  TGI: > 100 µM
NCI-H460 lung
  GI50: > 100 µM
  TGI: > 100 µM
NCI-H522 lung
  GI50: > 100 µM
  TGI: > 100 µM
NCI/ADR-RES ovarian
  GI50: > 100 µM
  TGI: > 100 µM
OVCAR-3 ovarian
  GI50: > 100 µM
  TGI: > 100 µM
OVCAR-4 ovarian
  GI50: 5.36 µM
  TGI: > 100 µM
OVCAR-5 ovarian
  GI50: > 44.1 µM
  TGI: > 100 µM
OVCAR-8 ovarian
  GI50: > 100 µM
  TGI: > 100 µM
PC-3 prostate
  GI50: > 100 µM
  TGI: > 100 µM
RPMI-8226 leukemia
  GI50: > 100 µM
  TGI: > 100 µM
RXF 393 renal
  GI50: 0.764 µM
  TGI: > 100 µM
SF-268 CNS
  GI50: > 100 µM
  TGI: > 100 µM
SF-295 CNS
  GI50: > 100 µM
  TGI: > 100 µM
SF-539 CNS
  GI50: 0.229 µM
  TGI: > 39.9 µM
SK-MEL-2 melanoma
  GI50: > 100 µM
  TGI: > 100 µM
SK-MEL-28 melanoma
  GI50: > 100 µM
  TGI: > 100 µM
SK-MEL-5 melanoma
  GI50: > 100 µM
  TGI: > 100 µM
SK-OV-3 ovarian
  GI50: 5.08 µM
  TGI: > 100 µM
SN12C renal
  GI50: > 100 µM
  TGI: > 100 µM
SNB-19 CNS
  GI50: > 100 µM
  TGI: > 100 µM
SNB-75 CNS
  GI50: > 79.9 µM
  TGI: > 100 µM
SR leukemia
  GI50: 0.239 µM
  TGI: > 100 µM
SW-620 colon
  GI50: > 100 µM
  TGI: > 100 µM
T-47D breast
  GI50: > 100 µM
  TGI: > 100 µM
TK-10 renal
  GI50: > 100 µM
  TGI: > 100 µM
U251 CNS
  GI50: > 100 µM
  TGI: > 100 µM
UACC-257 melanoma
  GI50: 0.316 µM
  TGI: > 100 µM
UACC-62 melanoma
  GI50: > 100 µM
  TGI: > 100 µM
UO-31 renal
  GI50: > 100 µM
  TGI: > 100 µM
